Earlier results on one compound are cited in patent US20150366189A1, “DRY MELT COATING PROCESS AND FORMULATION FOR VOLATILE COMPOUNDS” (AGROFRISH INC., priority 2013, published 2015).

The conditions of this series: enclosed space.

Where only a bound is given, the exact number is not on record here.

Take `CC1=CC1` [Experiment 1-MCP, 1-Methylcyclopropene]: the “concentration threshold above which 1-MCP is flammable” value is > 13,300 ppm.
